According to publication PMC7136958, “Targeting the pregnane X receptor using microbial metabolite mimicry” (EMBO Molecular Medicine, 2020):
Several values for one entry are separate records, joined by “and”; a condition that tells them apart may be missing. Equal entries are not always repeated.

Target: T1, P300 (Homo sapiens, UniProt Q09472)
T1 construct: or p300 (aa 1284-1672); purchased Reaction Biology Corp; host or cells: E. coli
Assay: Histone acetyltransferase assay p300 (Reaction Biology)
Assay type: biochemical
Procedure: Software Tool and reprinted with permission from KINOME scan®, a division of DiscoveRx […]
The following […] assays (HDAC, SIRT1, PRMT1, PARP1, p300, pCAF) were performed by Reaction Biology Corp. FKK6 was screened at a single concentration of 10 μM in duplicate in two separate experiments. The appropriate controls for the individual assays are published. The overall […]
enzyme activity in the assay is reported as a % activity in DMSO control wells. Control IC50 […]
Briefly, for the Sirtuin (SIRT1) assay, human SIRT1 (GenBank
Accession No. NM012238) full -length N-terminal His-tag protein (MW 83.2 kDa) was purified after expression in E. coli. […]
8), 50 mM NaCl, 0.1 mM EDTA, 1 mM DTT, 1 mM PMSF, and 1% DMSO. […] The radioactivity in mixture is detected on washed filter paper using a scintillation counter. […]
The 2X HDAC substrate is a fluorogenic acetylated peptide from p53 (residues 379 - 38 2 RHKK(Ac)AMC) which is mixed in with the enzyme-compound complex and incubated for 1-2 h at 30 °C. In the development step, a proprietary developer with trichostatin A (or TMP269) is added to stop the reaction and to generate fluorescent color which is read using an EnVision Multilabel Plate Reader (Perkin Elmer) (Ex 360 nm/ Em 460 nm). […]

T1 sequence (Q09472 1284-1672): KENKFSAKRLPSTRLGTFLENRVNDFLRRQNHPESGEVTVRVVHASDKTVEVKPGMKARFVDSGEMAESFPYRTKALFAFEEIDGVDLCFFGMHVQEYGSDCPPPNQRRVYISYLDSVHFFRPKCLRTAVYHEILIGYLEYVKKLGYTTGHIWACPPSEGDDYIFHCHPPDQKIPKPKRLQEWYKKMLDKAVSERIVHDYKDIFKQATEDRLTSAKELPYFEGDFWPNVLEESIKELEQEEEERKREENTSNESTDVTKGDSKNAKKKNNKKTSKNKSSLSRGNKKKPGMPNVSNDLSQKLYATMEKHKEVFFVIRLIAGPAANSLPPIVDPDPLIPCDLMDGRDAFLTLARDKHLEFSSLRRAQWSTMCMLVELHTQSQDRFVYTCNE

C#CCC(O)(c1ccncc1)c1cc2ccccc2n1S(=O)(=O)c1ccccc1 (centres unmarked) [FKK6]
% Enzyme Activity to DMSO controls (10 μM, substrate Histone H3, replicates data1/2 Exp 1/2): 97.73% and 98.72% and 95.38% | remaining activity at 10 µM (substrate Histone H3, replicates data1/2 Exp 1/2, read-out: % Enzyme Activity to DMSO controls): 100%
